In patent publication US8916607B2, “Use of piperphentonamine or salts thereof in manufacture of medicaments for treating brain diseases” (Guangzhou Municipal Zhongwei Biotechnology Limited Company, priority 2009, dated 2014):
Marks after values point to notes of the source that are not given here.

Legend:
[1] = tested on: learning and memory dysfunction caused by cerebral ischemia reperfusion; experiment: platform-diving experiment in dementia model of mice caused by ischemia reperfusion; assay type: in vivo, Kunming mice; conditions: for memory achievement Error times / Learning achievement Error times: in 5 min; for memory achievement Error times: test-retest period; for Learning achievement Error times: training period
Method: The animals were randomly divided into five groups: sham operation group, model group, piperphentonamine hydrochloride 1 mg/kg group, 2 mg/kg group, 4 mg/kg group. There were 10 mice in each group.
After the mice were fasted for 16 hours, we established the dementia model of mice caused by ischemia reperfusion. The preparatory steps were proceeded as follows: anesthetizing mouse by sodium pentobarbital (60 mg/kg, ip), supinely immobilizing on a board, incising on the midmost of neck, isolating bilateral common carotid artery, and threading with zero-size silk thread. Afterwards, operation steps were proceeded as follows: blocking the blood flow of bilateral common carotid artery for 10 min, then resuming the blood flow for 10 min, repeating the blocking/resuming steps for 3 times, and suturing the skin. The mice were put in normal feeding conditions. Bilateral common carotid artery is only isolated for sham operation group.
After ischemia reperfusion for 10 min, the drugs are injected on tail vein, after ischemia reperfusion for 24 h, administering for the second time. Carrying on the platform-diving experiment after administering for half an hour. The mice under test are put into the platform-diving instrument, adapting the environment for 3 min, and then the bottom plate being electrified, observing the time when the mouse jump onto the high platform (reaction time) and the times which the mouse jump down from the high platform and are shocked by electricity in 5 min (the number of errors in the training period). After 24 h, administering again, then carry on the second platform-diving experiment to measure the function of obtaining memory. Putting the mouse on the platform of experimental instrument, electrifying the bottom plate at the same time, recording the time when the mouse jump down from the high platform (latency) and the times which shock by electricity in 5 min (the times of error in test-retest period).

[2] = tested on: cerebral ischemia/reperfusion injury in mice; experiment: focal cerebral ischemia reperfusion injury model in mice (suture method), TTC infarction area; assay type: in vivo; conditions: ischemia 2 h, reperfusion 24 h
Method: Focal cerebral ischemia reperfusion injury model is made in mice by using suture method, being ischemia for 2 h, then reperfusing for 24 h, and it proves that piperphentonamine hydrochloride has protective effect on ischemia-reperfusion cerebral injury.
Mouse is anesthetized by injecting 10% chloral hydrate (350 mg/kg) in intraperitoneal, being intravenously administered 1 mg/kg, 5 mg/kg piperphentonamine hydrochloride or 20 u/kg coenzyme A, (COA), making the cerebral artery ischemia like as the method of example 6. Pulling out nylon thread from the internal carotid artery after the operation in 2 hours, until the end of the nylon thread is at bifurcation of the common carotid artery. Reperfusing for 24 hours. Except for not inserting a thread, the rest of steps for the false operation group are same as the above-mentioned. After reperfusion for 24 h, decapitating and taking the brain of survived mice, rapidly putting in −20° C. freezer for 5 min, then removing, quickly cutting coronal slices of 2.0 mm thickness from forward to back on the operating table, putting the slices in phosphate buffer solution with 1% TTC immediately, incubating for 30 min in avoiding light at room temperature. Flip brain slices to make them touch staining solution uniformly every 10 minute, and scanning and observing the dyeing results.
The local cerebral ischemia model of mice was established by using thread bolt method, to validate that piperphentonamine acetate has protective effect on experimental cerebral ischemia animal.

[3] = tested on: infective brain edema of rats (pertussis bacteria liquid); experiment: infective cerebral edema by pertussis bacteria liquid: brain water, sodium and potassium ion content; assay type: in vivo, SD rats; design: Na^+ / K^+: unit not given here; conditions: pretreatment 0.5 mg/kg iv daily, two days; 4 h after bacteria liquid
[4] = tested on: cerebral hemorrhage in rats induced by collagenase; experiment: ICH model induced by collagenase: NO in brain tissue by nitrate reductase method; assay type: in vivo, Wistar rats
Text: Rats in each group were anesthetized by chloral hydrate, decollated rapidly and the brain take were taken out. The brain tissue around the hole was cut and procured, weighed precisely, and made into a 10% tissue homogenate using a glass homogenizer in an ice bath environment with physiological saline as homogenized medium, the supernatant of which was taken to be determined the content of NO by nitrate reductase method.

[5] = tested on: cerebral hemorrhage in rats induced by collagenase; experiment: ICH model induced by collagenase: NE in brain tissue by ELISA; assay type: in vivo, Wistar rats
Text: Rats in each group were anesthetized by chloral hydrate, decollated rapidly and the brains were taken out. The brain tissue around the hole was cut and procured, weighed precisely, and made into a 10% tissue homogenate using a glass homogenizer in an ice bath environment with physiological saline as homogenized medium, the supernatant of which was taken to be determined the NE activity using ELISA method.

[6] = tested on: cerebral edema of mice caused by closed cerebral trauma; experiment: closed cerebral trauma model of mice, brain water content; assay type: in vivo, Kunming mice; conditions: brain taken after 24 h
Method: There were 10 mice in each group.
The closed cerebral trauma model of mice being established after fasting for 16 hours, administering intravenously to each group, striping and taking the brain of mouse after 24 hours, weighing the wet weight, and drying at 70° C. for 24 hours, then weighing the dry weight, and calculating brainwater content; the brain water content which is higher than normal values indicates the cerebral edema.
The grouping method, administer method and model preparation were referred to example 2.

[7] = tested on: cerebral hemorrhage in rats induced by collagenase; experiment: ICH model induced by collagenase: histopathological observation; assay type: in vivo, Wistar rats; conditions: large dose (2 mg/kg) pretreatment
Method: Influence of piperphentonamine hydrochloride on pathological morphology of cerebral hemorrhage in rats was observed. Each group animals were selected randomly, anesthetized deeply by chloral hydrate at predetermined time point, decollated and the brain were taken out rapidly, then, the brain tissue slices with hematoma (about 5 mm) were cut, and put into 10% formaldehyde solution immediately, fixed for 24 h followed by dehydration by graded ethanol, transparentizing by xylene, immersing in paraffin, embedding, slicing (5 μm), HE staining and sealing. The pathological changes area and the pathological change of the adjacent brain tissue were observed by optical microscope.

With `CN(CCC(=O)/C=C/c1ccc(O)cc1)CCc1ccc2c(c1)OCO2.Cl` [piperphentonamine hydrochloride, Piperphentonamine hydrochloride] the “Learning achievement Reaction time s” value ([1]; 1 mg/kg tail vein) was 16.53 ± 11.75 s, the “memory achievement latency s” value ([1]; 1 mg/kg tail vein) was 249.84 ± 133.55 s and the “memory achievement Error times” value ([1]; 1 mg/kg tail vein) was 1.31 ± 0.58. For the same compound, the “Learning achievement Error times” value ([1]; 1 mg/kg tail vein) was 5.37 ± 3.63, the “Learning achievement Reaction time s” value ([1]; 2 mg/kg tail vein) was 13.34 ± 8.85 s and the “memory achievement latency s” value ([1]; 2 mg/kg tail vein) was 308.13 ± 97.73 s. For the same compound, the “memory achievement Error times” value ([1]; 2 mg/kg tail vein) was 0.73 ± 0.58, the “Learning achievement Error times” value ([1]; 2 mg/kg tail vein) was 5.08 ± 3.34 and the “Learning achievement Reaction time s” value ([1]; 4 mg/kg tail vein) was 7.11 ± 4.06 s. The “memory achievement latency s” value ([1]; 4 mg/kg tail vein) was 352.79 ± 141.5 s, the “memory achievement Error times” value ([1]; 4 mg/kg tail vein) was 0.58 ± 1.45 and the “Learning achievement Error times” value ([1]; 4 mg/kg tail vein) was 4.5 ± 3.05. The “The percentage of infarction area occupied the entire coronal plane (%)” value ([2]; 1 mg/kg iv) was 19.78 ± 2.61 %, the “The percentage of infarction area occupied the entire coronal plane (%)” value ([2]; 5 mg/kg iv) was 16.55 ± 2.32 % and the “K^+” value [3] was 436.3 ± 43.9. The “Na^+” value [3] was 181.1 ± 26.1, the “water content of brain (%)” value [3] was 69.8 ± 0.44^3) % and the NO ([4]; 2 mg/kg, ICH rat brain tissue) was 1.65 ± 0.03^Δ μmol/g pro. The “NO content in brain tissue” value ([4]; high and low dose groups (2, 0.5 mg/kg)) was “could decrease the NO content in brain tissue”, the NE ([5]; 2 mg/kg, ICH rat brain tissue homogenate) was 1.61 ± 0.044^a ng/ml and the “brain tissue NE activity” value ([5]; high and low dose group (2, 0.5 mg/kg)) was “could decrease the brain tissue NE activity significantly”. The “water content of cerebra (%)” value ([6]; 1 mg/kg iv) was 82.05 ± 7.57 %, the “water content of cerebra (%)” value ([6]; 2 mg/kg iv) was 78.67 ± 5.38 % and the “water content of cerebra (%)” value ([6]; 4 mg/kg iv) was 75.43 ± 8.38 %. For the same compound, the “pathological morphology of cerebral hemorrhage” value [7] was “tissue edema and inflammatory cell infiltration after cerebral hemorrhage were reduce obviously”.
